Laboratory results published in the NIST ThermoML archive (doi:10.1021/je401118k).

Experiment: mn = molality of the nth substance listed, in mol/kg
Conditions: for surface tension liquid-gas: Ring tensiometer; for electrical conductivity: 101 kPa, Liquid, Alternating current cell with electrodes

CC(=O)[O-].C[N+]1(CCC[Si](O[Si](C)(C)C)(O[Si](C)(C)C)O[Si](C)(C)C)CCCC1 + O
298.15 K
Conditions | surface tension liquid-gas [mN/m]
m1 = 1e-06 | 70.5
m1 = 1e-05 | 58.2
m1 = 0.0001 | 47.1
m1 = 0.0002 | 42.4
m1 = 0.0004 | 36.9
m1 = 0.0006 | 32.1
m1 = 0.0008 | 29.7
m1 = 0.001 | 27.8
m1 = 0.002 | 23.5
m1 = 0.003 | 21.5
m1 = 0.004 | 20.2
m1 = 0.005 | 20
m1 = 0.006 | 20
m1 = 0.007 | 20
m1 = 0.008 | 20
m1 = 0.009 | 20

C[N+]1(CCC[Si](O[Si](C)(C)C)(O[Si](C)(C)C)O[Si](C)(C)C)CCCC1.O=[N+]([O-])[O-] + O
Conditions | electrical conductivity, 288.15 K [S/m] | electrical conductivity, 293.15 K [S/m] | electrical conductivity, 298.15 K [S/m] | electrical conductivity, 303.15 K [S/m] | electrical conductivity, 308.15 K [S/m] | surface tension liquid-gas, 298.15 K [mN/m]
m1 = 1e-06 | – | – | – | – | – | 71.3
m1 = 1e-05 | – | – | – | – | – | 67.8
m1 = 0.0001 | – | – | – | – | – | 54.3
m1 = 0.0006 | – | – | – | – | – | 42
m1 = 0.0008 | 0.00614 | 0.00666 | 0.00734 | 0.00801 | 0.00864 | –
m1 = 0.0009 | 0.00682 | 0.00744 | 0.00818 | 0.00894 | 0.00984 | –
m1 = 0.001 | 0.00733 | 0.0081 | 0.00888 | 0.00967 | 0.01058 | 37.4
m1 = 0.002 | 0.0143 | 0.01556 | 0.01717 | 0.01881 | 0.0212 | 33.3
m1 = 0.003 | 0.0209 | 0.0231 | 0.0255 | 0.0279 | 0.0302 | 30.3
m1 = 0.004 | 0.0264 | 0.0291 | 0.0321 | 0.0354 | 0.0388 | 27.6
m1 = 0.005 | 0.0282 | 0.031 | 0.0348 | 0.0392 | 0.0438 | 26.1
m1 = 0.006 | 0.03 | 0.0329 | 0.0367 | 0.0414 | 0.0466 | 25.1
m1 = 0.007 | 0.0312 | 0.0343 | 0.0382 | 0.043 | 0.0486 | 24
m1 = 0.008 | 0.0324 | 0.0354 | 0.0396 | 0.0447 | 0.0502 | 23.3
m1 = 0.009 | 0.0335 | 0.0369 | 0.041 | 0.0464 | 0.0525 | 23
m1 = 0.01 | – | – | – | – | – | 22.4
m1 = 0.015 | – | – | – | – | – | 21.4
m1 = 0.02 | – | – | – | – | – | 21.2
m1 = 0.025 | – | – | – | – | – | 21.3
m1 = 0.03 | – | – | – | – | – | 21.2
